Results as given in patent US20230416245A1, “ADENOSINE ANALOGS FOR THE TREATMENT OF DISEASE” (BIOINTERVENE, INC., priority 2020, published 2023).

What was measured:
[1] = target: T1, human adenosine A3 receptor (Homo sapiens (Human), UniProt P0DMS8); assay: Adenosine receptor binding assay ([125I]-AB-MECA competition); details: inhibition of 0.15 nM [125I]-AB-MECA binding, membranes of cells expressing human A3 receptor; read-out: hA3 Ki: Ki
From the text: Example 30: Adenosine Receptor Binding Assay
Materials and Reference Compounds: [^125I]-AB-MECA and [^3H]CCPA are both obtained from Amersham Biosciences (Little Chalfont, UK). IB-MECA are obtained from Tocris (Bristol, UK) and N6-cyclopentyl adenosine (CPA) is obtained from Sigma-Alrich (Poole, UK). Cell culture media, G418 and hygromycin are obtained from Invitrogen (Paisley, UK). Fetal calf serum is obtained from Perbio Science (Cheshire, UK). All other reagents are obtained from Fisher Chemicals (Loughborough, UK).
The method followed is that of Yates L, Clark J H, Martin T J, James S, Broadley K J, Kidd E J. Radioligand binding and functional responses of ligands for human recombinant adenosine A3 receptors. Auton Autacoid Pharmacol. 2006; 26(2):191-200. Cells stably transfected with the human adenosine A3 or A1 receptor are grown in Dulbecco's modified Eagles medium with nutrient mixture F12 containing NaHCO3 and Glutamax. Media is supplemented with 10% fetal calf serum, geneticin (G418; 0.67 mg/mL), hygromycin (500 μg/mL) and adenosine deaminase (1 U/mL). Cells are maintained at 37° C. with 5% CO2 in air. Cells are harvested and homogenized in ice-cold Tris buffer [50 mM Tris, 150 mM NaCl, 1 mM ethylenediaminetetraacetic acid (EDTA), pH 7.4] supplemented with the peptidase inhibitors, 4-(2-aminoethyl)benzenesulfonylfluoride (1 mM) and bacitracin (0.1 mg/mL), using a Polytron homogenizer (3×10 s bursts). The homogenate was spun for 10 min (4° C.) at 500 g. The supernatant is retained and the pellet is re-suspended in the buffer, homogenized and spun as above. The combined supernatants are centrifuged for 15 min (4° C.) at 48,000 g. The resultant pellet is re-suspended in the buffer and centrifuged for a second time at 48,000 g. The membrane pellet is then suspended in Tris buffer containing no peptidase inhibitors or adenosine deaminase and stored at −80° C. at a protein concentration of 1 mg/mL.
Binding Assays: Radioligand-binding assays were performed using the adenosine A3 receptor agonist [^125I]-AB-MECA and the A1 receptor agonist [^3H]CCPA. Binding assays were conducted in a total volume of 100 μL containing a 50 mM Tris, pH 7.4 buffer with or without 10 mM MgCl2, 20 μg membranes and either 0.15 nM [^125I]-AB-MECA (for the A3 receptor) or 1 nM [^3H]CCPA (for the A1 receptor). Assays were conducted at room temperature for 60 min (A1 receptor) or 120 min (A3 receptor) and terminated by the addition of 2 ml of ice-cold wash buffer (50 mM Tris, pH 7.4 with or without 10 mM MgCl2) and rapid filtration over 0.03% polyethylenimine-treated Whatman GF/C filters using a Brandel cell harvester (Semat International Ltd., St Albans, UK). Filters were then washed three times with 2 ml of ice-cold buffer. The filter-bound radioactivity were counted using a Compugamma counter (LKB Wallac, Turku, Finland). Competition experiments were performed to investigate the ability of reference compounds and embodiments of the invention to inhibit [^125I]-AB-MECA binding. Non-specific binding were determined using the respective compound at its highest concentration.
Data Analysis: The Kd and Bmax values for binding data were calculated based upon the molar amounts of bound and free [^125I]-AB-MECA. […] IC50 and Ki values and Hill slopes for inhibition of the radioligand binding by the compounds of the invention were calculated from the ligand competition curves using the Excel spreadsheet and the Kd value calculated for either [^125I]-AB-MECA or [^3H]CCPA. The results were expressed as a percent of control specific binding and as a percent inhibition of control specific binding obtained in the presence of the compounds of the invention. The IC50 values (concentration causing a half-maximal inhibition of control specific binding) and Hill coefficients (nH) were determined by non-linear regression analysis of the competition curves generated with mean replicate values using Hill equation curve fitting: […]

[2] = target: T1, human adenosine A3 receptor; assay: Intracellular cAMP levels (inhibition of forskolin-stimulated cAMP production); format: cell-based
From the text: Example 31: Intracellular cAMP Levels
The method followed is that published in Yates L, Clark J H, Martin T J, James S, Broadley K J, Kidd E J. Radioligand binding and functional responses of ligands for human recombinant adenosine A3 receptors. Auton Autacoid Pharmacol. 2006 April; 26(2):191-200.
Materials and Cell Culture: Adenosine deaminase was obtained from Roche (Lewes, UK). Forskolin was obtained from Sigma-Aldrich (Poole, UK). The sources of other materials are provided above in Example 1. CHO-K1 cells stably transfected with the human adenosine A3 receptor were grown in Dulbecco's modified Eagles medium with nutrient mixture F12 containing NaHCO3 and Glutamax. Media was supplemented with 10% fetal calf serum, geneticin (G418; 0.67 mg/mL), hygromycin (500 μg/mL) and adenosine deaminase (1 U/mL). Cells were maintained at 37° C. with 5% CO2 in air.
cAMP Measurements: Intracellular cAMP production was measured directly using a non-acetylation cAMP enzyme immunoassay (Amersham Biosciences, Little Chalfont, UK). Cultured CHO cells expressing human adenosine A3 receptors were allowed to plate overnight in 96-well plates in culture medium containing adenosine deaminase. Twenty-four hours later, they were incubated with adenosine analogues or compounds of the invention (0.1 nM-1 μM) for 5 min at 37° C., followed by incubation with forskolin (10 μM) for 10 min. The cells were then lysed with 200 μL of lysis reagent 1 provided with the kit for 10 min to release intracellular cAMP. Aliquots of the supernatants were then transferred to a 96-well microtitre plate coated with donkey anti-rabbit IgG; 100-μL cAMP standards (12.5-3200 fmol/well) were also added to the microtitre plate; 100 μL of rabbit anti-cAMP antibody was added to all wells and incubated at 2-5° C. for 2 h. The antiserum was made up in lysis reagent 2, which sequesters the key component in lysis reagent 1 and ensures that cAMP is free for subsequent analysis. Then 50 μL of cAMP peroxidase conjugate was added to all wells and left to incubate for 60 min at 2-5° C. to allow competition for the antibody between the un-labelled and horse radish peroxidase (HRP)-labelled cAMP. Wells were then washed with buffer and 150 μL of enzyme substrate containing 3,3′,5,5′-tetramethylbenzidine/hydrogen peroxide in 20% (v/v) dimethylformamide was added to each well and left to incubate for 60 min on a Titramax 100 microtitre plate shaker (Heidolph Instruments, Schwabach, Germany) at room temperature for color development. The reaction was stopped by the addition of 100 μL of 1 M sulfuric acid and the optical density (OD) read at 450 nm on a spectrophotometric MRX microplate reader (Dynex Technologies, Chantilly, VA, USA).
Analyses: Each sample/standard was analyzed in duplicate and the resulting OD values averaged. The percent bound (B/Bo) for each standard and sample was calculated using the following relationship: […]
where B is the specific OD for standard/sample and Bo is the specific OD for the zero standard. A standard curve was generated by plotting % B/Bo as a function of the log fmol cAMP standard per well. The fmol per well value for cAMP in each sample was then read from the graph. The results are expressed as a percent of control agonist response: (measured response/control response)*100 in the presence of the compounds of the invention. Concentration-response curves for inhibition of cAMP production were constructed for all compounds of the invention and reference compounds. The EC50 values (concentration producing a half-maximal response) were determined by non-linear regression analysis of the concentration-response curves generated with mean replicate values using Hill equation curve fitting, according to the equation:
where Y=response, A=left asymptote of the curve, D=right asymptote of the curve, C=compound concentration, and C50=EC50, and nH=slope factor. […]

ADORA3 = ADORA3 (Homo sapiens (Human), UniProt P0DMS8); assay: Intracellular calcium release assay (FLIPR); format: cell-based
Chain of ADORA3 (P0DMS8 whole entry): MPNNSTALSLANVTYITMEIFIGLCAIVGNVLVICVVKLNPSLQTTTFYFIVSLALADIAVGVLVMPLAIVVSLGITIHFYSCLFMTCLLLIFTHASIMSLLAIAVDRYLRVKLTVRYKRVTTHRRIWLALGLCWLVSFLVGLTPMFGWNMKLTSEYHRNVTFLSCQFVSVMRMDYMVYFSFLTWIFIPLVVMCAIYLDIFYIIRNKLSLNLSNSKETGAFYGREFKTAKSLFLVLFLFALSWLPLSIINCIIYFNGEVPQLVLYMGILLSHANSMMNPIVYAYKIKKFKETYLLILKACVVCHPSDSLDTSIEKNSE
Protocol: Example 32: Intracellular Calcium Release Assay
Cell Culture: The table below lists the cell lines used that stably express the 4 subtypes of adenosine receptors, along with the growth medium used for each:
For experiments with the ADORA1- and ADORA3-expressing cells, the medium was aspirated and the cells washed twice with 10 mL DPBS. Two mL of trypsin was added and incubated at 37° C. for 1 minute. Then 10 mL of platting media was added to terminate the digestion and 1 mL of the solution was taken out for cell counting. ADORA2A- and ADORA2B-expressing cells were thawed rapidly in a 37° C. water bath. Cell suspensions were transferred to 50 mL conical tubes. Plating media was added to the 10 mL mark and then 1 mL taken out for cell counting. The 50 mL tubes containing the various types of cells were centrifuged at 1000 g. Then the supernatants were aspirated, being careful not to aspirate the cells. The cell pellets were resuspended in 3-5 mL platting media, then 0.5 mL was taken out for cell counting. Then the cell suspension was diluted to 1×10^6 cells/mL (20,000 cells per 20 μL per well) in platting medium, and cells were seeded into 384-well cell plates (Greiner-781946). The 384-well cell plate was placed in a 37° C./5% CO2 incubator (Thermo-371, Thermo Scientific) for 16-20 hours.
Preparation of the intracellular calcium imaging agent (Fluo-4 Direct™ Calcium Assay Kit, Invitrogen-F10471, Thermo Scientific): One mL of FLIPR Assay Buffer was added to 77 mg probenecid to make a 250 mM solution, which was used fresh for each day. One vial of Fluo-4 Direct™ crystals was thawed and 10 mL of FLIPR Assay Buffer was added to the vial. 0.2 mL of probenecid was added to each 10 mL vial of Fluo-Direct™ solution, such that the final assay concentration was 2.5 mM. It was vortexed, left to stand >5 min and protected from light. The dye was prepared fresh each day.
Compound Preparation: Compound plates were prepared as follows. First, the test compound was diluted to prepare a 2 mM solution and then 10-point 3-fold serial dilutions were made using ECHO (ECHO 555, LabCyte), then 900 nL was transferred to the compound plate. For all targets, the final top concentration of the test compound was […]. For agonist reference compounds, 10-point and 3-fold serial dilutions were made, then 900 nL was transferred to the assay plate. Then 30 μL of assay buffer was added to the compound plate and then the plate was centrifuged at 1000 rpm for 1 min.
FLIPR Assay: Cell plates were removed from the incubator, to which were added 20 μL 2×Fluo-4 Direct™ solution, then the plates were reincubated in a 5% CO2, 37° C. incubator for 50 min and at RT for 10 min. To run the protocol on the Fluorescent Imaging Plate Reader (FLIPR) TETRA (MD-FT0249, Molecular Devices, Inc.), 10 μL of assay buffer was transferred from the 384-well plate (Greiner-781280) to the cell plates and then the fluorescence signal was read. Then 10 μL of compound solution was transferred from the compound plate to the cell plates and the fluorescence signal was read. The “Max-Min” was calculated, starting from Read 91 to the maximum allowed. For agonists, activation %=(RLU−LC)/(HC−LC)*100, based on the following: RLU=relative light unit, 91 to maximum allowed signal; HC=average signal of the high concentration of agonist; LC=average signal of DMSO well. The data were fitted using GraphPad Prism 5, using the model “log(agonist) vs. response—Variable slope” to determine the EC50 value. The receptor efficacy of the test compound relative to the agonist NECA was calculated as a percentage (%) of the response to […]. Table 10 includes EC50 values for compounds described herein.

T1 sequence (P0DMS8 whole entry): as above

| Ki [1] [nM] | SMILES | also measured |
| --- | --- | --- |
| 3.49 | CNC(=O)C12C[C@@H]1[C@@H](n1cnc3c(NCC4CCC4)cc(Cl)nc31)[C@H](O)[C@@H]2O (stereo in doubt) [Compound 65, (1S,2R,3S,4R,5S)-4-(5-chloro-7-((cyclobutylmethyl)amino)-3H-imidazo[4,5-b]pyridin-3-yl)-2,3-dihydroxy-N-methylbicyclo[3.1.0]hexane-1-carboxamide] | – |
| 126 | CCCNc1cc(Cl)nc2c1ncn2[C@H]1[C@H](O)[C@H](O)[C@@H]2C[C@@H]21 [Compound 66] | – |
| 94.4 | O[C@@H]1[C@H](O)[C@@H]2C[C@@H]2[C@H]1n1cnc2c(NCC3CCC3)cc(Cl)nc21 [Compound 67, (1R,2R,3S,4R,5S)-4-(5-chloro-7-((cyclobutylmethyl)amino)-3H-imidazo[4,5-b]pyridin-3-yl)bicyclo[3.1.0]hexane-2,3-diol] | – |
| 456 | CCNc1c(Cl)c(Cl)nc2c1ncn2[C@H]1[C@H](O)[C@H](O)[C@@H]2C[C@@H]21 [Compound 71, (1R,2R,3S,4R,5S)-4-(5,6-dichloro-7-(ethylamino)-3H-imidazo[4,5-b]pyridin-3-yl)bicyclo[3.1.0]hexane-2,3-diol] | – |

Further lines, the compound ahead of its results:

| SMILES | Ki [1] [nM] | also measured |
| --- | --- | --- |
| CCCNc1cc(Cl)nc2c1ncn2[C@H]1[C@H](O)[C@H](O)C2(C(=O)NC)C[C@H]12 (stereo in doubt) [Compound 64, (1S,2R,3S,4R,5S)-4-(5-chloro-7-(propylamino) 3H-imidazo[4,5-b]pyridin-3-yl)-2,3-dihydroxy-N-methylbicyclo[3.1.0]hexane-1-carboxamide] | 0.64 | – |
| CCNc1cc(Cl)nc2c1ncn2[C@H]1[C@H](O)[C@H](O)[C@]2(C(=O)NC)C[C@H]12 [Compound 59, (1S,2R,3S,4R,5S)-4-(5-chloro-7-(ethylamino)-3H-imidazo[4,5-b]pyridin-3-yl)-2,3-dihydroxy-N-methylbicyclo[3.1.0]hexane-1-carboxamide] | – | EC50 ([2]; CHO cells expressing human adenosine A3 receptors, forskolin 10 μM): 0.11 nM; CAMP Efficacy (%) ([2]; maximal response as percentage of the response produced by 100 nM IB-MECA): 106.95%; EC50 (ADORA3; CHO-K1 cells, Fluo-4, top concentration 10 μM, read-out: Cell Calcium Assay EC50): 1.2 nM; Cell Calcium Efficacy (%) (ADORA3; percentage of the response to NECA): 103.9% |
| CCNC(=O)[C@@]12C[C@@H]1[C@@H](n1cnc3c(NCC)cc(Cl)nc31)[C@H](O)[C@@H]2O [Compound 69, (1S,2R,3S,4R,5S)-4-(5-chloro-7-(ethylamino)-3H-imidazo[4,5-b]pyridin-3-yl)-N-ethyl-2,3-dihydroxybicyclo[3.1.0]hexane-1-carboxamide] | 1.68 | – |
